As usually defined, the EC50 is the concentration giving half of the maximal effect.

For this assay, the target named is soluble guanylate cyclase (human GUCYA3 and GUCYB3) overexpressed in CHO cells (Homo sapiens (Human), UniProt Q02108+Q02153). The assay can be described thus: CHO cellular assay (cGMP production, Cisbio cGMP HTRF kit). The settings on record: CHO GUCY clone 8E10, cGMP production, assay buffer with 1 mM IBMX and 20 uM ODQ, 1 h room temperature; minimum quantification limit 0.5 nM (listed 0.5 nM means ≤0.5 nM); read-out: EC50. It counts as cell-based. An excerpt: Chinese hamster ovary (CHO) cells overexpressing soluble guanylate cyclase were generated to test the effect of sGC activators in a cellular context. Human cDNAs for GUCYA3 (RefSeq: NM_000856.3) and GUCYB3 (RefSeq: NM_000857.1) were amplified by PCR from a HUVEC (Human Umbilical Vein Endothelial Cells) cDNA library and cloned into mammalian expression vectors. CHO K1 cells (ATCC CCL-61) were transfected using Lipofectamine 2000 following manufacturer's instructions and stably expressing clones were identified by antibiotic selection. CHO GUCY clone 8E10 was used for subsequent experiments. Cells were seeded at a density of 3000 cells/well in white 384-well proxyplates (Perkin Elmer) and incubated overnight, then the medium was removed and cells were washed with assay buffer (HBSS, 0.1% BSA. 1 mM IBMX, 20 uM ODQ). sGC activators were serially diluted in DMSO, then diluted in assay buffer prior to adding to cells (10 ul/well, final DMSO concentration 0.5%). Cells were incubated with compounds for 1 h room temperature, then assayed for cGMP production using Cisbio cGMP HTRF kit (62GM2PEC) according to manufacturer's instructions. The EC50s are calculated based on the amount of cGMP interpolated from the standard curve, using a 4-parameter sigmoidal dose-response.
soluble guanylate cyclase (human GUCYA3 and GUCYB3) overexpressed in CHO cells, sequence (Q02108 whole entry partner): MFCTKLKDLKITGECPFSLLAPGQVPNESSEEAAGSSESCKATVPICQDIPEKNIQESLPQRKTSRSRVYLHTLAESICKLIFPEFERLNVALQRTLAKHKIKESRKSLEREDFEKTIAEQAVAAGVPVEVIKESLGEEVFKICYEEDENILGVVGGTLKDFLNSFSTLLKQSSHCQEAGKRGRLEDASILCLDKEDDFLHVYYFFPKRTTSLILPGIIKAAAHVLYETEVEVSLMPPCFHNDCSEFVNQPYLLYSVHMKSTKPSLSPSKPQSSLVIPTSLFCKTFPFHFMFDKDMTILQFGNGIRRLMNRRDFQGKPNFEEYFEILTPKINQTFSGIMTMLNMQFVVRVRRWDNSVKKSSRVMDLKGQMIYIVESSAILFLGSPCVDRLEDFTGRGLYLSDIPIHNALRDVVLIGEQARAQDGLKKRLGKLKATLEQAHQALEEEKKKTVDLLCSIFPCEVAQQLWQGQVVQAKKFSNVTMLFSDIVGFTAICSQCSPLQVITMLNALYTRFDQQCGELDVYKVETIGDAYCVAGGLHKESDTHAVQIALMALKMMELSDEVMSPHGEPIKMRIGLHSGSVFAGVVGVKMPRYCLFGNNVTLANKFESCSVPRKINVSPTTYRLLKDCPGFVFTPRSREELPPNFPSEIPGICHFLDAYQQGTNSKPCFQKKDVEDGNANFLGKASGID
soluble guanylate cyclase (human GUCYA3 and GUCYB3) overexpressed in CHO cells, sequence (Q02153 whole entry): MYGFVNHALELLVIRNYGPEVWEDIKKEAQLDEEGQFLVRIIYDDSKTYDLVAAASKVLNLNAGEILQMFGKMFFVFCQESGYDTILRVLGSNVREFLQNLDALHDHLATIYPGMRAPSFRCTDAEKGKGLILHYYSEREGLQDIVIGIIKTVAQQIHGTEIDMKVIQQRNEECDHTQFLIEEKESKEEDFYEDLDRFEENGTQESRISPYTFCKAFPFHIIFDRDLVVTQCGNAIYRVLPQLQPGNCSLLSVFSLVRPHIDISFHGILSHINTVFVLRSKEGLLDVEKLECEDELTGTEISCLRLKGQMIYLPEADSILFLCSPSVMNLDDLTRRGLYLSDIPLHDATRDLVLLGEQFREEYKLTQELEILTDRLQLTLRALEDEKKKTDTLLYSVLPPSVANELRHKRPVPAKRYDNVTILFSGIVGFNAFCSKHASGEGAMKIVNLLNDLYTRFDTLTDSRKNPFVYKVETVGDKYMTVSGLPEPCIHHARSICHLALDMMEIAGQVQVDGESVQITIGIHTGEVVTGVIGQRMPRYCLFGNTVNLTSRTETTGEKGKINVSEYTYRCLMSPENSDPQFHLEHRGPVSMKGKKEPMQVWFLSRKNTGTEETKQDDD
A general note: TR-FRET usually uses a lanthanide donor and a delayed reading to cut background.
Regarding `CCc1cc(CN2CC(C)c3cccc(-c4cccc(-n5ncc(C(=O)O)c5C)n4)c32)ccc1C1CCN(C(=O)C2CC2)CC1` (single isomer, unassigned; (+)) [(+)-20-3, (+)-1-(6-(1-(4-(1-(Cyclopropanecarbonyl)piperidin-4-yl)-3-ethylbenzyl)-3-methylindolin-7-yl)pyridin-2-yl)-5-methyl-1H-pyrazole-4-carboxylic acid], the EC50 was not above 0.5 nM.
As to `CCc1cc(NC2COc3cccc(-c4cccc(-n5ncc(C(=O)O)c5C(F)(F)F)n4)c32)ccc1C1CCN(C(=O)C2CC2)CC1` (single isomer, unassigned; (+)) [(+)-36-1, (+)-1-(6-(3-((4-(1-(Cyclopropanecarbonyl)piperidin-4-yl)-3-ethylphenyl)amino)-2,3-dihydrobenzofuran-4-yl)pyridin-2-yl)-5-(trifluoromethyl)-1H-pyrazole-4-carboxylic acid], the EC50 was not above 0.5 nM.
The same measure for `CCc1cc(NC2COc3cccc(-c4cccc(-n5ncc(C(=O)O)c5CC)n4)c32)ccc1C1CCN(C(=O)C2CC2)CC1` (single isomer, unassigned; (+)) [(+)-36-2, (+)-1-(6-(3-((4-(1-(Cyclopropanecarbonyl)piperidin-4-yl)-3-ethylphenyl)amino)-2,3-dihydrobenzofuran-4-yl)pyridin-2-yl)-5-ethyl-1H-pyrazole-4-carboxylic acid]: not above 0.5 nM; for `Cc1cc(C2CCN(C(=O)C(C)C)CC2)ccc1NC1CCc2cccc(-c3cccc(-n4ncc(C(=O)O)c4C)n3)c21` (single isomer, unassigned; (+)) [(+)-46-1]: not above 0.5 nM; for `Cc1cc(C2CCN(C(=O)CC3CC3)CC2)ccc1NC1CCc2cccc(-c3cccc(-n4ncc(C(=O)O)c4C)n3)c21` (single isomer, unassigned; (+)) [(+)-46-3, (+)-1-(6-(3-((4-(1-(2-Cyclopropylacetyl)piperidin-4-yl)-2-methylphenyl)amino)-2,3-dihydro-1H-inden-4-yl)pyridin-2-yl)-5-methyl-1H-pyrazole-4-carboxylic acid]: 1 nM.
The same measure for `Cc1cc(C2CCN(C(=O)CC3CC3)CC2)c(F)cc1NC1CCc2cccc(-c3cccc(-n4ncc(C(=O)O)c4C)n3)c21` (single isomer, unassigned; (+)) [(+)-46-5, (+)-1-(6-(3-((4-(1-(2-Cyclopropylacetyl)piperidin-4-yl)-5-fluoro-2-methylphenyl)amino)-2,3-dihydro-1H-inden-4-yl)pyridin-2-yl)-5-methyl-1H-pyrazole-4-carboxylic acid]: 1 nM; for `CCc1cc(NC2CCc3cccc(-c4cccc(-n5ncc(C(=O)O)c5C)n4)c32)ccc1C1CCN(C(=O)C2CC2)CC1` (single isomer, unassigned; (+)) [(+)-46-6]: not above 0.5 nM; for `CCOC(=O)N1CCC(c2ccc(NC3CCc4cccc(-c5cccc(-n6ncc(C(=O)O)c6CC)n5)c43)cc2CC)CC1` (single isomer, unassigned; (+)) [(+)-52-1]: not above 0.5 nM.
Take `CCc1cc(NC2CCc3cccc(-c4cccc(-n5ncc(C(=O)O)c5CC)n4)c32)ccc1C1CCN(C(=O)OC)CC1` (single isomer, unassigned; (+)) [(+)-52-2, (+)-5-Ethyl-1-(6-(3-((3-ethyl-4-(1-(methoxycarbonyl)piperidin-4-yl)phenyl)amino)-2,3-dihydro-1H-inden-4-yl)pyridin-2-yl)-1H-pyrazole-4-carboxylic acid]: the EC50 is not above 0.5 nM.
As to `C=CCOC(=O)N1CCC(c2ccc(NC3CCc4cccc(-c5cccc(-n6ncc(C(=O)O)c6CC)n5)c43)cc2CC)CC1` (single isomer, unassigned; (+)) [(+)-52-3], the EC50 is not above 0.5 nM.
Take `CCc1cc(NC2CCc3cccc(-c4cccc(-n5ncc(C(=O)O)c5CC)n4)c32)ccc1C1CCN(C(=O)C2CC2)CC1` (single isomer, unassigned; (+)) [(+)-53-1, (+)-1-(6-(3-((4-(1-(cyclopropanecarbonyl)piperidin-4-yl)-3-ethylphenyl)amino)-2,3-dihydro-1H-inden-4-yl)pyridin-2-yl)-5-ethyl-1H-pyrazole-4-carboxylic acid]: the EC50 was not above 0.5 nM.
Next, `CCc1cc(NC2CCc3cccc(-c4cccc(-n5ncc(C(=O)O)c5CC)n4)c32)ccc1C1CCN(C(=O)CC2CC2)CC1` (single isomer, unassigned; (+)) [(+)-53-2, (+)-1-(6-(3-((4-(1-(2-cyclopropylacetyl)piperidin-4-yl)-3-ethylphenyl)amino)-2,3-dihydro-1H-inden-4-yl)pyridin-2-yl)-5-ethyl-1H-pyrazole-4-carboxylic acid]: 1 nM.
Take `Cc1cc(C2CCN(C(=O)CC3CC3)CC2)cc(F)c1NC1CCc2cccc(-c3cccc(-n4ncc(C(=O)O)c4C)n3)c21` (single isomer, unassigned; (+)) [(+)-53-3, (+)-1-(6-(3-((4-(1-(2-cyclopropyacetyl)piperidin-4-yl)-2-fluoro-6-methylphenyl)amino)-2,3-dihydro-1H-inden-4-yl)pyridin-2-yl)-5-methyl-1H-pyrazole-4-carboxylic acid]: the EC50 was 3.5 nM.
Next, `Cc1cc(C2CCN(C(=O)C3CC3)CC2)ccc1NC1CCc2cccc(-c3cccc(-n4ncc(C(=O)O)c4C(F)F)n3)c21` (single isomer, unassigned; (+)) [(+)-53-4, (+)-1-(6-(3-((4-(1-(cyclopropanecarbonyl)piperidin-4-yl)-2-methylphenyl)amino)-2,3-dihydro-1H-inden-4-yl)pyridin-2-yl)-5-(difluoromethyl)-1H-pyrazole-4-carboxylic acid]: not above 0.5 nM; `Cc1cc(C2CCN(C(=O)C3CC3)CC2)ccc1OC1CCc2cccc(-c3cccc(-n4ncc(C(=O)O)c4C(F)(F)F)n3)c21` (single isomer, unassigned; (+)) [Example 3a, (+)-1-(6-(3-(4-(1-(cyclopropanecarbonyl)piperidin-4-yl)-2-methylphenoxy)-2,3-dihydro-1H-inden-4-yl)pyridin-2-yl)-5-(trifluoromethyl)-1H-pyrazole-4-carboxylic Acid]: 1 nM.
`O=C(O)c1cnn(-c2cccc(-c3cccc4c3C(Oc3ccc5c(c3)CCN(Cc3ccccn3)C5)CC4)n2)c1C(F)(F)F` (single isomer, unassigned; (+)) [Example 4a, (+)-1-(6-(3-((2-(pyridin-2-ylmethyl)-1,2,3,4-tetrahydroisoquinolin-6-yl)oxy)-2,3-dihydro-1H-inden-4-yl)pyridin-2-yl)-5-(trifluoromethyl)-1H-pyrazole-4-carboxylic Acid]: the EC50 was found to be 2.4 nM.
Regarding `Cc1cc(C2CCN(C(=O)C3CC3)CC2)ccc1NC1CCc2cccc(-c3cccc(-n4ncc(C(=O)O)c4C(F)(F)F)c3)c21` (single isomer, unassigned; (+)) [Example 6. b). (+), (+)-1-(3-(3-((4-(1-(cyclopropanecarbonyl)piperidin-4-yl)-2-methylphenyl)amino)-2,3-dihydro-1H-inden-4-yl)phenyl)-5-(trifluoromethyl)-1H-pyrazole-4-carboxylic acid], the 50% effective concentration (EC50) was not above 0.5 nM.
Regarding `Cc1cc(C2CCN(C(=O)C3CC3)CC2)ccc1NC1CCc2cccc(-c3cccc(-n4ncc(C(=O)O)c4C)n3)c21` (single isomer, unassigned; (+)) [Example 7a, (+)-1-(6-(3-((4-(1-(cyclopropanecarbonyl)piperidin-4-yl)-2-methylphenyl)amino)-2,3-dihydro-1H-inden-4-yl)pyridin-2-yl)-5-methyl-1H-pyrazole-4-carboxylic acid], the EC50 is not above 0.5 nM.
Next, `Cc1c(C(=O)O)cnn1-c1cccc(-c2cccc3c2C(Nc2ccc(C4CCN(C(=O)C5CC5)CC4)cc2)CC3)n1` (single isomer, unassigned; (+)) [Example 9. b). (+), (+)-1-(6-(3-((4-(1-(cyclopropanecarbonyl)piperidin-4-yl)phenyl)amino)-2,3-dihydro-1H-inden-4-yl)pyridin-2-yl)-5-methyl-1H-pyrazole-4-carboxylic acid]: not above 0.5 nM; `CCc1c(C(=O)O)cnn1-c1cccc(-c2cccc3c2C(Nc2ccc(C4CCN(C(=O)C5CC5)CC4)cc2C)CC3)n1` (single isomer, unassigned; (+)) [Example 10a]: not above 0.5 nM; `CCc1cc(CN2CC(C)c3cccc(-c4cccc(-n5ncc(C(=O)O)c5C(F)(F)F)n4)c32)ccc1C1CCN(C(=O)C2CC2)CC1` (single isomer, unassigned; (+)) [Example 19a]: not above 0.5 nM.
Next, `CCc1cc(CN2c3c(cccc3-c3cccc(-n4ncc(C(=O)O)c4CC)n3)CC2C)ccc1C1CCN(C(=O)C2CC2)CC1` (single isomer, unassigned; (+)) [Example 22a, (+)-1-(6-(1-(4-(1-(Cyclopropanecarbonyl)piperidin-4-yl)-3-ethylbenzyl)-2-methylindolin-7-yl)pyridin-2-yl)-6-ethyl-1H-pyrazole-4-carboxylic Acid]: 1 nM; `Cc1cc(C2CCN(C(=O)C3CC3)CC2)ccc1NC1COc2cccc(-c3cccc(-n4ncc(C(=O)O)c4C)n3)c21` (single isomer, unassigned; (+)) [Example 34a, (+)-1-(6-(3-((4-(1-(Cyclopropanecarbonyl)piperidin-4-yl)-2-methylphenyl)amino)-2,3-dihydrobenzofuran-4-yl)pyridin-2-yl)-5-methyl-1H-pyrazole-4-carboxylic Acid]: not above 0.5 nM.

For the origin of these results see patent US10550102B2, “Indane and indoline derivatives and the use thereof as soluble guanylate cyclase activators” (NOVARTIS AG, priority 2014, dated 2020).
